The source of these data is PubChem BioAssay (NCI).

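Tested at 5 concentrations; 48 h exposure; 96-well plates; endpoints linearly interpolated, else capped at highest concentration. TGI is the concentration that stops growth completely.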

What all share (assay): NCI tumour cell line growth inhibition, 48 h
In assay [1] the test system is A498 renal.
Assay [2] concerns CAKI-1 renal.
The subject of assay [3] is EKVX NSCLC.
Assay [4] deals with HCC-2998 colon.
The test system of assay [5] is HCT-116 colon.
In assay [6] the test system is K-562 leukemia.
Assay [7] has as its system LOX IMVI melanoma.
Assay [8] concerns MALME-3M melanoma.
Assay [9] relates to MCF7 breast.
Assay [10] concerns MDA-MB-435.
Assay [11] deals with NCI-H460 lung.
Assay [12] concerns OVCAR-3 ovarian.
Assay [13] has as its system PC-3 prostate.
Assay [14] deals with SF-539 CNS.
The test system of assay [15] is SK-OV-3 ovarian.
In assay [16] the test system is SN12C renal.
Assay [17] relates to SNB-75 CNS.
Assay [18] relates to SK-MEL-2 melanoma.
Assay [19] has as its system SK-MEL-5 melanoma.
In assay [20] the test system is BT-549 breast.

`CCOC(=O)c1c(SC(=O)c2ccc(C(C)(C)C)cc2)n(-c2ccccc2)c(=S)n(-c2ccccc2)c1=O`: the TGI in assay [1], in assay [2], in [3], in [4], in assay [5] and in [6] was more than 100 µM in each case. For the same compound, the TGI in assay [7], in assay [8], in assay [9], in [10], in [11] and in [12] was more than 100 µM each time. Moreover, the TGI in [13], in assay [14], in assay [15], in [16] and in [17] was more than 100 µM each time.

In the case of `NC(CCCCCCCCCCP(=O)(O)O)C(=O)O` (configuration not stated), the TGI in assay [2], in assay [3], in assay [4], in [5], in assay [6] and in assay [7] was more than 100 µM in each case. Moreover, the TGI in assay [9], in [10], in [11], in assay [12], in assay [13] and in [14] was more than 100 µM throughout. Besides, the TGI in assay [18], in [19], in assay [15], in [16] and in assay [17] was more than 100 µM each time.

Regarding `CCN(CC)c1ccc2cc(C(N)=O)c(=N)oc2c1`, the TGI in [1] is more than 100 µM; in assay [20] it was more than 100 µM; in [2] it was more than 100 µM; in assay [4] it was 57.2 µM; in assay [5] it was more than 100 µM; in assay [6], more than 100 µM. The TGI in [7] is more than 100 µM; in assay [10] it was more than 100 µM; in assay [11], more than 100 µM; in assay [12] it was more than 100 µM; in assay [13], 87.6 µM; in assay [14] it was more than 100 µM. Moreover, the TGI in [18] was 54.1 µM; in assay [19], more than 100 µM; in [15], more than 100 µM; in assay [16], more than 100 µM; in assay [17], more than 100 µM.

As for `CSC1=C(C#N)C(=S)N=C(N)C1C(=O)Nc1ccc(C)cc1` (configuration not stated), the TGI in assay [1], in assay [20], in assay [2], in assay [3], in assay [4] and in assay [5] was more than 100 µM in each case. Also, the TGI in assay [6], in assay [7], in assay [8], in assay [10], in assay [11] and in assay [12] was more than 100 µM in each case. Further, the TGI in assay [13], in assay [14], in assay [18], in assay [19], in [15] and in assay [16] was more than 100 µM each time. The TGI in assay [17] is more than 100 µM.

Turning to `CN(C)CCCN1c2ccc([N+](=O)[O-])cc2CCc2cccc([N+](=O)[O-])c21`, the TGI in [3] stood at 39.1 µM; in [4] it was 26.3 µM; in assay [5], 27.3 µM; in [6] it was 52 µM; in [7], 31.8 µM; in [8], 28 µM. Also, the TGI was found to be 27.7 µM in assay [10]; 29.2 µM in assay [11]; 28.8 µM in assay [12]; 42.8 µM in assay [13]; 31.5 µM in assay [14]; 33.5 µM in assay [18]. Moreover, the TGI in assay [19] was determined as 30.2 µM; in [15] it was 30.8 µM; in assay [16] it was 28.6 µM; in [17], 26.5 µM.

Regarding `Cc1cc(=O)[nH]c(NNC(C#N)c2cccc(O)c2)n1` (configuration not stated), the TGI in assay [2], in assay [5], in assay [6], in [7], in assay [8] and in assay [11] was more than 100 µM each time. For the same compound, the TGI in [12], in assay [14], in [18], in [19], in assay [15] and in [16] was more than 100 µM throughout. The same compound gave a TGI in assay [17] of more than 100 µM.

Turning to `NC1CC(=O)c2cscc21` (configuration not stated), the TGI is more than 100 µM in assay [20]; 29.3 µM in assay [2]; more than 100 µM in assay [3]; more than 100 µM in assay [5]; more than 100 µM in [6]; more than 100 µM in assay [7]. The TGI in assay [10] is 64.2 µM; in assay [11] it was more than 100 µM; in assay [12] it was 34.8 µM; in assay [13], more than 100 µM; in [14], more than 100 µM; in assay [18] it was more than 100 µM. The TGI in assay [19], in assay [15], in assay [16] and in [17] was more than 100 µM in each case.

Turning to `N/C(=N\N=C/c1ccc(O)c(O)c1O)NO`, the TGI is more than 100 µM in assay [1]; 55.3 µM in [2]; more than 100 µM in assay [3]; 96.6 µM in assay [4]; more than 59.6 µM in [5]; 48 µM in assay [6]. For the same compound, the TGI in assay [7] was 33.9 µM; in [8], more than 100 µM; in assay [9] it was 32.9 µM; in assay [11], 32.4 µM; in assay [12], 51 µM; in assay [14], more than 100 µM. Also, the TGI was more than 69.8 µM in assay [18]; 45.1 µM in assay [19]; more than 100 µM in [15]; 34.9 µM in [16]; more than 46.5 µM in assay [17].
